From patent US7622551B2, “Leukocyte stimulating peptides” (POSCO, priority 2004, dated 2009)
Where no end group is shown, it is not given here.

What was measured:
[1] = tested on: undifferentiated HL60 cells; experiment: [Ca2+]i increase in undifferentiated HL60 cells; type: cell-based, human
Procedure: (§1) U937 (human histiocytic lymphoma cells), HL60 (human promyelocytic leukemia cells), Raw 264.7 (mouse macrophage), Jurkat (human acute T cell leukemia), PC12 (rat adrenal pheochromocytoma cells), 3Y1 (Rat embryonic fibroblasts), 3T3L1 (preadipocytes), and NCI-H292 (human mucoepidermoid pulmonary carcinoma cells) were obtained from the American Type Culture Collection (Rockville, Md.) and maintained as recommended. FPR- or FPRL1 expressing RBL-2H3 cells were cultured as described previously (He et al. J. Immunol. 2000. 165: 4598-4605). Cells were maintained at about 1×10^6 cells/ml under standard incubator conditions (humidified atmosphere, 95% air, 5% CO2, at 37° C.). HL60 cells were induced to differentiate into the granulocyte phenotype by adding dimethylsulfoxide (DMSO) (final concentration 1.25%, v/v) for 4 days to the culture medium, as described previously (Itoh et al. Blood. 1998. 92: 1432-1441).
(§2) The level of [Ca^2+]i was determined using Grynkiewicz's method using fura-2/AM (Grynkiewicz et al. J. Biol. Chem. 1985. 260: 3440-3550). Briefly, prepared cells were incubated with 3 μM of fura-2/AM at 37° C. for 50 min in serum-free RPMI 1640 medium under continuous stirring. 2×10^6 cells were aliquoted for each assay in Ca^2+ free Locke's solution (154 mM NaCl, 5.6 mM KCl, 1.2 mM MgCl2, 5 mM HEPES, pH 7.3, 10 mM glucose, and 0.2 mM EGTA). Fluorescence changes were measured at the dual excitation wavelength of 340 nm and 380 nm, and the calculated fluorescence ratio was translated into [Ca^2+]i.

FPRL1 = target: T1, FPRL1 (Homo sapiens, UniProt P25090); experiment: [Ca2+]i increase in FPRL1-expressing RBL-2H3 cells; type: cell-based; conditions: 10 μM of each peptide (FIG. 7)
T1 construct: expressed in transfected cells; host or cells: RBL-2H3
T1 sequence (P25090 1-351): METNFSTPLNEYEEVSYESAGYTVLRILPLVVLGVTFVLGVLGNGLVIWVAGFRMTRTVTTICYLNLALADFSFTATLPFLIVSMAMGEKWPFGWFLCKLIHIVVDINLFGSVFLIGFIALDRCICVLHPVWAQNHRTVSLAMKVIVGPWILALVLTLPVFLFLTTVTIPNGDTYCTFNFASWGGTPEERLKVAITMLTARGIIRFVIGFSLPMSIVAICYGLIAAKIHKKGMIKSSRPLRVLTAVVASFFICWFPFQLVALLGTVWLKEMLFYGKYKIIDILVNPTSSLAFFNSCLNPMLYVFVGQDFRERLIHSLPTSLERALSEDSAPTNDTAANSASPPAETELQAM
Procedure: as §1, §2

[2] = tested on: differentiated HL60 cells; experiment: Arachidonic acid (AA) release in [3H]AA-labeled dHL60 cells; type: cell-based, human
Procedure: as §1
For the initial screening of the PS-SPCLs, we measured the AA release stimulating activity of each peptide pool. Cultured dHL60 cells (10^7 cells/ml) were pre-labeled with 0.5 μCi/ml of (^3H)-AA in RPMI 1640 medium containing 10% FBS for 90 min at 37° C. in a humidified incubator supplied with 95% air and 5% CO2, as described previously (Bae et al. J. Immunol. 2000. 164: 4089-4096). The labeled cells were then washed twice with serum-free RPMI 1640 and incubated in RPMI 1640 medium containing 0.1% fatty acid-free BSA for 15 min at 37° C. After discarding the medium, the cells were stimulated with various concentrations of peptide for the indicated times. Radioactivity in the medium and of collected cells was determined with a liquid scintillation counter. When investigating the effects of inhibitors, cells were preincubated with the indicated concentrations of each inhibitor or vehicle for 15 min prior to stimulation.

ERK = ERK phosphorylation in dHL60 cells (anti-phospho-ERK immunoblot); type: cell-based, human
Procedure: Each sample (30 μg of protein) was subjected to 8% SDS-PAGE, and phosphorylated ERK was quantified by immunoblot analysis with anti-phospho-ERK antibody. The results shown are from a single experiment representative of at least three independent experiments.
Extracellular signal regulated protein kinase (ERK) is a well-known intracellular enzyme that mediates diverse cellular responses (Sugden et al. Cell Signal. 1997. 9: 337-351). […] To compare the intracellular signaling involving these 4 peptides, dHL60 cells were pretreated either with LY294002 (50 μM), GF109203X (5 μM), or PD98059 (50 μM) or left untreated as a control. After being incubated for the indicated periods (15 minutes for LY294002 and GF109203X, 60 minutes for PD98059), the cells were stimulated with 1 μM of each peptide for 5 minutes.

FPR = target: T2, FPR (Homo sapiens, UniProt P21462); experiment: [Ca2+]i increase in FPR-expressing RBL-2H3 cells; type: cell-based; conditions: data not shown
T2 construct: expressed in transfected cells; host or cells: RBL-2H3
T2 sequence (P21462 1-350): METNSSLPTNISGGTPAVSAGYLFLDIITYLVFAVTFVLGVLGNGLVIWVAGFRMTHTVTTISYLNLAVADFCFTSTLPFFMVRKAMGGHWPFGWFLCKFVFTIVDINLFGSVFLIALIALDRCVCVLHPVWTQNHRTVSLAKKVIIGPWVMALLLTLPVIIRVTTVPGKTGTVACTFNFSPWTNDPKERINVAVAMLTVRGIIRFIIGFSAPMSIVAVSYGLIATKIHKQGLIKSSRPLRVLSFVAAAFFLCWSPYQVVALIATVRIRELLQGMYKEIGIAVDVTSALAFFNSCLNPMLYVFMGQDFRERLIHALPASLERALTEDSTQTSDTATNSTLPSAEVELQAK
Procedure: as §1, §2

human neutrophils [3] = experiment: Superoxide generation (cytochrome c reduction) in human neutrophils; type: cell-based; conditions: 1 μM of peptide, cytochrome c reduction
Procedure: Peripheral blood leukocyte concentrates were donated by the Ulsan Red Cross Blood Center (Ulsan, Korea). PBMCs were separated on a Histopaque-1077 gradient. After two washings with HBSS without Ca^2+ and Mg^2+, the PBMCs were suspended in 10% FBS containing RPMI and incubated for 60 min at 37° C. to let the monocytes attach to the culture dish. Cells were washed 5 times with warmed RPMI medium to remove lymphocytes, and then the attached monocytes were collected, as described previously (Bae et al. J. Leukoc. Biol. 1999. 65: 241-248). Human neutrophils were isolated according to standard procedures; i.e., dextran sedimentation, hypotonic lysis of erythrocytes, and using a medium lymphocyte separation gradient, as described previously (Seo et al. J. Immunol. 1997. 158: 1895-1901). Isolated human leukocytes were then used promptly.
We determined superoxide anion generation by measuring cytochrome c reduction using a microtiter 96 well plate ELISA reader (Bio-Tekinstruments, EL312e, Winooski, Vt.) as described previously (Bae et al. Blood. 2001. 97: 2854-2862). Human neutrophils (1×10^6 cells/100 μl of RPMI 1640 medium per well of a 96-well plate) were preincubated with 50 μM of cytochrome c at 37° C. for 1 min and then incubated with the indicated peptide concentrations. Superoxide generation was determined from change in light absorption at 550 nm over 5 minutes at 1 min intervals.

[4] = tested on: differentiated HL60 cells; experiment: [Ca2+]i increase in fura-2 loaded dHL60 cells; type: cell-based, human
Procedure: as §1, §2

human neutrophils [5] = experiment: Chemotaxis assay (modified Boyden chamber), neutrophils; type: cell-based; conditions: concentrations less than 10 μM
Procedure: (§3) FIGS. 6A and 6B show chemotactic effect of peptides. Assays were performed using a modified Boyden chamber assay, as described in the Examples. Isolated human neutrophils (A) or monocytes (B) (1×10^6 cells/ml in serum free RPMI) were added to the upper wells of a 96-well chemotaxis chamber and migration across a 3 μm pore size (5 μm for monocytes) polycarbonate membrane was assessed after 2 hrs incubation at 37° C. The numbers of migrated cells were determined by counting them in a high power field (400×). Results are presented as means±S.E. of three independent experiments each performed in duplicate.
Chemotaxis assays were performed using multiwell chambers (Neuroprobe Inc., Gaithersburg, Md.) (Bae et al. Blood. 2001. 97: 2854-2862). Briefly, prepared human monocytes were suspended in RPMI at a concentration of 1×10^6 cells/ml, and 25 μl of the suspension was then placed onto the upper well of a chamber separated by a 5 μm polyhydrocarbon filter (3 μm pores size not polyvinylpyrrolidone coated, as is needed for neutrophils) from peptides or N-formyl-methionyl-leucyl-phenylalanine (fMLF) in the lower well. […] Stained cells were counted in five randomly chosen high power fields (HPF) (400×) (Bae et al. Blood. 2001. 97: 2854-2862).

human monocytes = experiment: Chemotaxis assay (modified Boyden chamber), monocytes; type: cell-based; conditions: FIG. 6B; control peptide at concentrations less than 10 μM
Procedure: as §3
Chemotaxis assays were performed using multiwell chambers (Neuroprobe Inc., Gaithersburg, Md.) (Bae et al. Blood. 2001. 97: 2854-2862). Briefly, prepared human monocytes were suspended in RPMI at a concentration of 1×10^6 cells/ml, and 25 μl of the suspension was then placed onto the upper well of a chamber separated by a 5 μm polyhydrocarbon filter (3 μm pores size not polyvinylpyrrolidone coated, as is needed for neutrophils) from peptides or N-formyl-methionyl-leucyl-phenylalanine (fMLF) in the lower well. After incubation for 2 hours (90 minutes for neutrophils) at 37° C., non-migrated cells were removed by scraping, and cells that migrated across the filter were dehydrated, fixed, and stained with hematoxylin (Sigma, St. Louis, Mo.). Stained cells were counted in five randomly chosen high power fields (HPF) (400×) (Bae et al. Blood. 2001. 97: 2854-2862).

| Substance | [Ca^2+]i increase in undifferentiated HL60 cells ([1]; peptides 10 μM (FIG. 8)) | Effect of PTX on peptide-stimulated calcium signaling ([1]; undifferentiated HL60 cells, data not shown) | [Ca^2+]i increase in FPRL1-expressing RBL-2H3 cells (FPRL1) | AA release stimulating activity (in words) ([2]; dHL60 cells, 10 μM) | Effect of cPLA2-specific inhibitors AACOCF3 and MAFP on peptide-induced AA release ([2]; dHL60 cells, inhibitor pretreatment 15 min, 1 μM peptide) | Folds of increase (% of total), arachidonic acid release ([2]; differentiated HL60 cells, 10 μM of peptide) [folds] | Phosphorylation level of ERK (ERK; dHL60 cells (FIG. 9)) | Effect of GF109203X (PKC) on peptide-induced ERK phosphorylation (ERK; dHL60 cells, GF109203X (5 μM) 15 minutes, 1 μM peptide 5 minutes) | Effect of LY294002 (PI3K) on peptide-induced ERK phosphorylation (ERK; dHL60 cells, LY294002 (50 μM) 15 minutes, 1 μM peptide 5 minutes) | Effect of PD98059 (MEK) on peptide-induced ERK phosphorylation (ERK; dHL60 cells, PD98059 (50 μM) 60 minutes, 1 μM peptide 5 minutes) | Time of maximal ERK activation after stimulation (ERK; dHL60 cells, data not shown) [min] | [Ca^2+]i in FPR-expressing RBL-2H3 cells / ligand for FPR (FPR) | Superoxide production (human neutrophils [3]) [nmole/10^6 cells] | Concentration of maximal activity, [Ca^2+]i increase ([4]; dHL60 cells, data not shown) | [Ca^2+]i ([4]; differentiated HL60 cells, fura-2, 1 μM of peptide) [nM] | Cellular chemotaxis in neutrophils (in words) (human neutrophils [5]) | Cellular chemotaxis in human monocytes (in words) (human monocytes) |
| --- | --- | --- | --- | --- | --- | --- | --- | --- | --- | --- | --- | --- | --- | --- | --- | --- | --- |
| RKYYYM-NH2 [Peptide P18] | dramatically induced | partially inhibited | induced calcium increase | most potent | blocked | 2.61 ± 0.295 | dramatic increase | completely blocked | not by LY294002 | partially blocked | 5 | not for FPR | 28.4 ± 3.21 | approximately 3 μM | 150 ± 14.5 | – | – |
| LFMYHP [reference compound] | – | – | not to be able to induce calcium increase | – | – | – | – | – | – | – | – | – | – | – | – | did not induce | did not induce |
